Activity calls are given as the source filed them. How the calls were made is not given here. Residues, ends and D or L forms follow the SMILES beside them.
Target: Chaperone protein DnaK (Escherichia coli (strain K12)) (UniProt P0A6Y8)
Experiment: binders of DnaK substrate-binding domain, biophysical, NMR, chaperone (AID 1033)
Conditions: Purified DnaK SBD, NMR ligand binding

Chain of Chaperone protein DnaK (Escherichia coli (strain K12)) (P0A6Y8 whole entry, looked up, the tested form may be a part): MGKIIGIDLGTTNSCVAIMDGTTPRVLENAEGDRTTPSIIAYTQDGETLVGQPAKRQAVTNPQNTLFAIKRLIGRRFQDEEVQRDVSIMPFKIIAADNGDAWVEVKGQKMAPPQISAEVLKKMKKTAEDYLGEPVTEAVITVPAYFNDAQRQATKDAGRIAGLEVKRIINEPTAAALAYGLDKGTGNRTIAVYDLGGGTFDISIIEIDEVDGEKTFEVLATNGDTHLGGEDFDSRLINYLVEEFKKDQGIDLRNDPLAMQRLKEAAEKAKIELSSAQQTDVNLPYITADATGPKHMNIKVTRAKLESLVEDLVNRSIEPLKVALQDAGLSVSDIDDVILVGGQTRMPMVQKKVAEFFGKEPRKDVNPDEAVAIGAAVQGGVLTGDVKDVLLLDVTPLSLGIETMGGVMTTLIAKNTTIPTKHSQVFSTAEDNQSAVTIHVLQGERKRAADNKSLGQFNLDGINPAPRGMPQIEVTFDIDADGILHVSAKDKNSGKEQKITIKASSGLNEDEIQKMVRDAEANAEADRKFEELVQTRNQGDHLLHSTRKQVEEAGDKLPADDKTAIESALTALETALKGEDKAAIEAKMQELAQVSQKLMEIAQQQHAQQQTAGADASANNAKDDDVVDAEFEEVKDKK

In the case of `O=C(O)Cc1noc2ccccc12`, the Kd is reported as > 4 mM (inactive).
With `COc1cc(OC)cc(-c2nc(N)n[nH]2)c1` the Kd was > 4 mM (inactive).
For `NC(=O)c1ccc(NC(=O)c2cccnc2)cc1`, the Kd was > 4 mM (inactive).
For `O=C(NN1C(=O)C2C3C=CC(C3)C2C1=O)C1CC=CCC1` (stereo not given), the Kd was > 4 mM (inactive).
In the case of `NCc1ccc2c(c1)OCCCO2`, the Kd is reported as > 4 mM (inactive).
`CC(=O)Nc1cccc(NC(=O)c2ccco2)c1` was tested, and the Kd was > 4 mM (inactive).
With `COc1ccc2c(c1)OC/C(=C/c1ccc(O)c(O)c1)C2=O` the Kd was > 4 mM (inactive).
In the case of `[O-][n+]1onc2c1CCc1c-2nc(-c2ccccc2)n1O`, the Kd is reported as > 4 mM (inactive).
In the case of `O=[N+]([O-])c1cccc2c1nnn2C(CO)OCCO` (stereo not given), the Kd is reported as > 4 mM (inactive).
In the case of `c1n[nH]cc1-c1cn[nH]c1`, the Kd is reported as > 4 mM (inactive).
For `CN1CCN(C(=O)Nc2cccc3ccccc23)CC1`, the Kd was > 4 mM (inactive).
For `Cc1cc(C(=O)NCc2cccnc2)no1`, the Kd was > 4 mM (inactive).
For `CCN(CC)S(=O)(=O)c1cccc2nsnc12`, the Kd was > 4 mM (inactive).
`S=C(NCc1ccco1)NN1CCOCC1` was tested, and the Kd was > 4 mM (inactive).
In the case of `COc1ccc([C@@H]2CC(=O)c3c(O)cc(O)cc3O2)cc1O`, the Kd is reported as > 4 mM (inactive).
With `Fc1cccc(Cl)c1CN1CCNCC1` the Kd was > 4 mM (inactive).
In the case of `CC(C)(C)CC(=O)N1CCC(C(N)=O)CC1`, the Kd is reported as > 4 mM (inactive).
For `c1cc2c(cc1[C@H]1OC[C@H]3[C@@H]1CO[C@H]3c1ccc3c(c1)OCO3)OCO2`, the Kd was > 4 mM (inactive).
For `CN1C(=O)Cc2cc(S(N)(=O)=O)ccc21`, the Kd was > 4 mM (inactive).
For `Nc1nc(-c2ccc(F)c(F)c2)cs1`, the Kd was > 4 mM (inactive).
For `CC(=O)Nc1ccc(S(=O)(=O)NCC2CCCO2)cc1` (stereo not given), the Kd was > 4 mM (inactive).
`NCc1nnnn1-c1ccccc1` was tested, and the Kd was > 4 mM (inactive).
With `COc1ccc(C)cc1S(=O)(=O)Nc1ccccc1C` the Kd was > 4 mM (inactive).
With `S=c1[nH]nc(-c2cccnc2)n1C1CCCCC1` the Kd was > 4 mM (inactive).
In the case of `CC(=O)Nc1nc(C)c(C(C)=O)s1`, the Kd is reported as > 4 mM (inactive).
`COc1c2c(cc3occ(-c4ccc5c(c4)OCO5)c(=O)c13)OC(C)(C)C=C2` was tested, and the Kd was > 4 mM (inactive).
For `COc1cccc(N2CCN(C(=O)c3cccnc3)CC2)c1`, the Kd was > 4 mM (inactive).
For `NC1=NCc2ccccc21`, the Kd was > 4 mM (inactive).
For `O=C(O)c1cccnc1N1CCOCC1`, the Kd was > 4 mM (inactive).
For `O=C1NC(=S)N/C1=C/c1ccc(O)c(Cl)c1`, the Kd was > 4 mM (inactive).
`COc1cc2c(cc1OC)C1Cc3ccc(OC)c(OC)c3CN1CC2` (stereo not given) was tested, and the Kd was > 4 mM (inactive).
With `C[C@]12CCC3C(CC[C@]4(O)C[C@@H](O)CC[C@]34C=O)[C@@]1(O)CCC2C1=CC(=O)OC1` (stereo not given in full) the Kd was > 4 mM (inactive).
In the case of `C[C@@H]1OC(O[C@H]2C(O[C@H]3CC[C@@]4(C)C(CC[C@]5(C)C4CC=C4C6CC(C)(C)CC[C@]6(C(=O)O)CC[C@]45C)[C@]3(C)CO)OC[C@H](O)[C@@H]2O)[C@H](O)[C@H](O)[C@H]1O` (stereo not given in full), the Kd is reported as > 4 mM (inactive).
`O=C(O)CC12CC3CC(CC(O)(C3)C1)C2` was tested, and the Kd was > 4 mM (inactive).
For `CC(=O)c1ccc(Cc2cnc(N)s2)cc1`, the Kd was > 4 mM (inactive).
`CC1(C)NC(=O)N(CN2CCOCC2)C1=O` was tested, and the Kd was > 4 mM (inactive).
For `CC(=O)N[C@@H](CC(=O)O)C(=O)N[C@@H](CCC(=O)O)C(=O)O` (Ac-Asp-Glu-OH), the Kd was > 4 mM (inactive).
`CC(=O)O[C@@H]1CC2C(C)(C)[C@@H](O)CC[C@]2(C)C2CC[C@@]3(C)[C@H](c4ccoc4)OC(=O)[C@H]4O[C@]43[C@@]21C` (stereo not given in full) was tested, and the Kd was > 4 mM (inactive).
With `CC[C@H](/C=C/C(C)C1CCC2C3CCC4=CC(=O)CC[C@]4(C)C3CC[C@]12C)C(C)C` (stereo not given in full) the Kd was > 4 mM (inactive).
`O=C(Cc1cccs1)N1CCOCC1` was tested, and the Kd was > 4 mM (inactive).
With `O=C(O)CCC(=O)Nc1nccs1` the Kd was > 4 mM (inactive).
In the case of `NCCCCNCCCN`, the Kd is reported as > 4 mM (inactive).
With `NCc1ccc(S(=O)(=O)O)cc1` the Kd was > 4 mM (inactive).
`Nc1nnc(SCc2cccnc2)s1` was tested, and the Kd was > 4 mM (inactive).
With `Nc1cccc2nsnc12` the Kd was > 4 mM (inactive).
For `COC(=O)[C@@H]1OC(=O)C2OC23[C@@]1(C)CCC1[C@]2(C)C(C[C@@H](O)[C@]13C)C(C)(C)[C@H](OC(C)=O)C[C@@H]2OC(C)=O` (stereo not given in full), the Kd was > 4 mM (inactive).
With `C=C(C)[C@H]1COc2cc3oc(=O)ccc3cc2O1` the Kd was > 4 mM (inactive).
`O=C1CC(=O)N(c2ccccc2)c2ccccc21` was tested, and the Kd was > 4 mM (inactive).
For `CCN1C[C@@]2(COC)C3[C@@H](OC)[C@H]4[C@@H]1[C@]3(C(OC)C[C@H]2O)C1C[C@@]2(O)[C@H](OC(=O)c3ccccc3)C1[C@]4(OC(C)=O)[C@@H](O)[C@@H]2OC` (stereo not given in full), the Kd was > 4 mM (inactive).
In the case of `NC(=O)c1cccc2c1OCCO2`, the Kd is reported as > 4 mM (inactive).
In the case of `Nc1ccc(Cl)nn1`, the Kd is reported as > 4 mM (inactive).
In the case of `S=c1nc2c(n[nH]1)[nH]c1ccccc12`, the Kd is reported as > 4 mM (inactive).
`OC1CCCN(Cc2ccccc2)C1` (stereo not given) was tested, and the Kd was > 4 mM (inactive).
`C/C=C/COc1nc2c(c(=O)n(C)c(=O)n2C)n1C` was tested, and the Kd was > 4 mM (inactive).
For `CC(C)=NNC(=O)C(=O)Nc1ccc(F)cc1`, the Kd was > 4 mM (inactive).
`CC1(C)C2C[C@@H](O)[C@]3(C)C(CC[C@@]4(C)[C@H](c5ccoc5)OC(=O)[C@H]5O[C@]543)[C@@]2(C)[C@@H](O)C[C@H]1O` (stereo not given in full) was tested, and the Kd was > 4 mM (inactive).
With `Nc1nc2c3ccccc3nc(Cc3ccccc3)n2n1` the Kd was > 4 mM (inactive).
With `O=C1CSC(=O)N1CNc1ccccc1` the Kd was > 4 mM (inactive).
With `O=C1COc2ccc(C(=O)c3ccccc3)cc2CN1` the Kd was > 4 mM (inactive).
`O=C(Nc1ccon1)c1cccc(Cl)c1` was tested, and the Kd was > 4 mM (inactive).
For `CN1CCC(O)N1C(=O)c1ccccc1O` (stereo not given), the Kd was > 4 mM (inactive).
In the case of `Nc1nc(-c2ccccc2)cc(=O)[nH]1`, the Kd is reported as > 4 mM (inactive).
`COC1CC(O[C@H]2CC[C@]3(C=O)C4CC[C@]5(C)C(C6=CC(=O)OC6)CC[C@]5(O)C4CC[C@]3(O)C2)OC(C)C1O` (stereo not given in full) was tested, and the Kd was > 4 mM (inactive).
In the case of `CC(=O)NC1=NN(c2ccccc2)C(=O)C1`, the Kd is reported as > 4 mM (inactive).
`Cc1nc2nc(Cc3ccccc3)[nH]n2c(=O)c1Cl` was tested, and the Kd was > 4 mM (inactive).
For `C/C=C1\[C@H]2C=C(C)C[C@]1(N)c1ccc(=O)[nH]c1C2`, the Kd was > 4 mM (inactive).
For `Cc1sc2nc[nH]c(=S)c2c1C`, the Kd was > 4 mM (inactive).
In the case of `CCc1noc(C)c1C(=O)N1CCOCC1`, the Kd is reported as > 4 mM (inactive).
`O=C(O)CSc1cccc2cccnc12` was tested, and the Kd was > 4 mM (inactive).
In the case of `O=[N+]([O-])c1ccc2c(c1)N([O-])C1(CCCCC1)[N+]2=O`, the Kd is reported as > 4 mM (inactive).
With `NC(=O)C1CCN(C(=O)Nc2ccccc2)CC1` the Kd was > 4 mM (inactive).
`CN(C)c1ccc(N2C(=O)CCC2=O)cc1` was tested, and the Kd was > 4 mM (inactive).
In the case of `O=C(O)CCc1nc2ccccc2[nH]c1=O`, the Kd is reported as > 4 mM (inactive).
With `Cc1ccc(N2NC(=O)CC2=O)cc1C` the Kd was > 4 mM (inactive).
In the case of `Cc1cc2c(N)cccc2nn1`, the Kd is reported as > 4 mM (inactive).
`O=c1[nH]c(NCCO)nnc1Cc1ccccc1` was tested, and the Kd was > 4 mM (inactive).
`COc1ccc(N=C2NC(=O)CS2)cc1` was tested, and the Kd was > 4 mM (inactive).
For `O=C1CC[C@]23/C=C/C(=O)NCCCCNCCCNC(=O)/C=C/c4ccc(c2c4)O[C@@H]3C1`, the Kd was > 4 mM (inactive).
In the case of `O=C(O)C1CC(=O)N(Cc2ccco2)C1` (stereo not given), the Kd is reported as > 4 mM (inactive).
For `O=C(O)c1ccnn1-c1ccccc1`, the Kd was > 4 mM (inactive).

Reference: PubChem BioAssay AID1033 (Sanford-Burnham Center for Chemical Genomics, 2008)
